Test results reported in patent publication US11572351B1, “Bis-Schiff base compositions and formulations” (Systima Technologies, Inc., priority 2016, dated 2023).

What was measured:
[1] = Melt viscosity versus temperature, parallel plate rheometer, temperature ramp; assay type: physicochemical; settings: ramp 2° C. per minute, strain 0.01%, 10.00 rad/s; processing window about 100° C. up to at least 200° C.
Method: (§1) In some embodiments, the chemical composition may have a low viscosity, such as below about 100,000 cP at temperatures below 170° C. The viscosity may be measured by rotational rheometry by acquiring viscosity versus temperature curves on a parallel plate rheometer, commercially available from TA Instruments (New Castle, Del.) at a controlled strain of 0.01% and an angular frequency of 10.00 radians per second (rad/s) by heating samples at a rate of 2° C. per minute to the isothermal temperature specified. In one or more embodiments, the chemical composition may have a melt viscosity of less than or equal to 500 cP at 125° C. as measured by rotation rheometry. In one or more embodiments, the chemical composition may have a melt viscosity of less than or equal to 100,000 cP at 125° C. as measured by rotation rheometry. For instance, the chemical composition may have a melt viscosity of from 10,000 to 100,000 cP, from 40,000 to 80,000 cP, or from 20,000 to 50,000 cP at 125° C. In some particular embodiments, the chemical composition may have an extremely low viscosity at less than 200° C., such as less than 500 cP. In some particular embodiments, the chemical composition may have a melt viscosity of from 100 to 500 cP, from 200 to 400 cP, or from 300 to 500 cP at 125° C. […]

[2] = Viscosity stability during 4 hour isothermal dwell at 120° C., parallel plate rheometer; assay type: physicochemical; settings: isothermal 120° C., viscosity stayed 150 to 200 cP
Method: as §1

viscosity (melt flow viscosity) [1] | period of time of stable low melt viscosity [2] | Structure (SMILES)
less than 1000 cP | at least 4 hours | C(=N\c1ccc(Oc2cccc(Oc3ccc(/N=C/c4ccco4)cc3)c2)cc1)/c1ccco1 [Example 1]
less than 1000 cP | at least 4 hours | C(=N\c1cccc(Oc2cccc(Oc3cccc(/N=C/c4ccco4)c3)c2)c1)/c1ccco1 [Example 2]
